Patent US20230081426A1, “COMPOUNDS AND METHODS FOR KRAS MODULATION AND INDICATIONS THEREFOR” (Plexxikon Inc., priority 2020, published 2023)
Read-outs that look alike come from different tables or passages of the source.

Biological target: T1, G12D-mutant human KRAS (amino acid residues 1-188) (Homo sapiens, UniProt P01116, G12D)
T1 construct: G12D or G12C-mutant human KRAS (amino acid residues 1-188) with FLAG tag; made in house; host or cells: E. coli
Experiment: KRAS Binding Disruption Assay (AlphaScreen; biotinylated KRpep-2d analogue or RAF1-RBD), G12D
Settings: geometric mean, read-out: KRAS GMean IC50 (uM) MUTATION: G12D
How it was run: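 Displacement format with mutant KRAS, biotinylated KRpep-2d analogue or RAF1-RBD (5-20 nM each) at pH 7.5 with 5 mM MgCl2.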

T1 sequence (P01116 1-188 isoform P01116-2 G12D): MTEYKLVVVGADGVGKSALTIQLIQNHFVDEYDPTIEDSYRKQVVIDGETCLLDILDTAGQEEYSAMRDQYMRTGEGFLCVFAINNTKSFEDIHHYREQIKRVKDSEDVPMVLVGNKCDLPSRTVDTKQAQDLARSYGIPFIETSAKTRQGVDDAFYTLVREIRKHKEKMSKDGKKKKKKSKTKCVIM

| SMILES | IC50 (KRAS G12D) | IC50 (Table 4, comparison with compounds of WO 2017/172979) |
| --- | --- | --- |
| CN(C)CCN(C)c1nc(N2C[C@H]3CC[C@@H](C2)N3)c2ccc(-c3cc(O)cc4ccccc34)cc2n1 [P-0057, 4-(4-((1R,5S)-3,8-diazabicyclo[3.2.1]octan-3-yl)-2-((2-(dimethylamino)ethyl)(methyl)amino)quinazolin-7-yl)naphthalen-2-ol] | 10 to 100 µM | – |
| CC1CN(c2nc(OCCCN3CCC(F)(F)C3)nc3c(F)c(-c4cc(O)cc5ccccc45)c(Cl)cc23)C(C)CN1 (stereo not shown) [Compound 36 in WO 2017/172979, reference compound] | – | 3.06 µM |
| Oc1cc(-c2ccc3c(N4C[C@H]5CC[C@@H](C4)N5)nc(N4CC5(CCCNC5)C4)nc3c2F)c2ccccc2c1 [P-0600, 4-(4-((1R,5S)-3,8-diazabicyclo[3.2.1]octan-3-yl)-8-fluoro-2-(2,6-diazaspiro[3.5]nonan-2-yl)quinazolin-7-yl)naphthalen-2-ol] | 0.0001 to 10 µM | – |
| O=C1NC2(CCO1)CN(c1nc(N3C[C@H]4CC[C@@H](C3)N4)c3ccc(-c4cc(O)cc5ccccc45)c(F)c3n1)C2 [P-0547, 2-(4-((1R,5S)-3,8-diazabicyclo[3.2.1]octan-3-yl)-8-fluoro-7-(3-hydroxynaphthalen-1-yl)quinazolin-2-yl)-7-oxa-2,5-diazaspiro[3.5]nonan-6-one] | 0.0001 to 10 µM | – |
| CC(C)(CNS(C)(=O)=O)COc1nc(N2C[C@H]3CC[C@@H](C2)N3)c2ccc(-c3cc(O)cc4ccccc34)c(F)c2n1 [P-0590, N-(3-((4-((1R,5S)-3,8-diazabicyclo[3.2.1]octan-3-yl)-8-fluoro-7-(3-hydroxynaphthalen-1-yl)quinazolin-2-yl)oxy)-2,2-dimethylpropyl)methanesulfonamide] | 0.0001 to 10 µM | – |
| CN(C)CC(C)(C)COc1nc(N2C[C@H]3CC[C@@H](C2)N3)c2ccc(-c3cc(O)cc4ccccc34)c(F)c2n1 [P-0589, 4-(4-((1R,5S)-3,8-diazabicyclo[3.2.1]octan-3-yl)-2-(3-(dimethylamino)-2,2-dimethylpropoxy)-8-fluoroquinazolin-7-yl)naphthalen-2-ol] | 0.0001 to 10 µM | – |
| Oc1cc(-c2ccc3c(N4C[C@H]5CC[C@@H](C4)N5)nc(N4CC5(CCNC5)C4)nc3c2F)c2ccccc2c1 [P-0599] | 0.0001 to 10 µM | – |
| CN(C)CC(CN)Oc1nc(N2C[C@H]3CC[C@@H](C2)N3)c2ccc(-c3cc(O)cc4ccccc34)cc2n1 (stereo partly drawn) [P-0074, 4-(2-((1-amino-3-(dimethylamino)propan-2-yl)oxy)-4-((1R,5S)-3,8-diazabicyclo[3.2.1]octan-3-yl)quinazolin-7-yl)naphthalen-2-ol] | 0.0001 to 10 µM | – |
| O=C(O)CN1[C@@H]2CC[C@H]1CN(c1nc(OCC34CCCN3CCC4)nc3c(F)c(-c4cc(O)cc5ccccc45)ccc13)C2 [P-0552, 2-((1R,5S)-3-(8-fluoro-7-(3-hydroxynaphthalen-1-yl)-2-((tetrahydro-1H-pyrrolizin-7a(5H)-yl)methoxy)quinazolin-4-yl)-3,8-diazabicyclo[3.2.1]octan-8-yl)acetic acid] | 0.0001 to 10 µM | – |
| OCCCc1cccc2[nH]cc(-c3ccc4c(N5C[C@H]6CC[C@@H](C5)N6)nc(OCC56CCCN5CCC6)nc4c3F)c12 [P-0606, 3-(3-(4-((1R,5S)-3,8-diazabicyclo[3.2.1]octan-3-yl)-8-fluoro-2-((tetrahydro-1H-pyrrolizin-7a(5H)-yl)methoxy)quinazolin-7-yl)-1H-indol-4-yl)propan-1-ol] | 0.0001 to 10 µM | – |
| Fc1cc(Cl)c2c(-c3ccc4c(N5C[C@H]6CC[C@@H](C5)N6)nc(OCC56CCCN5CCC6)nc4c3F)c[nH]c2c1 [P-0561, 4-((1R,5S)-3,8-diazabicyclo[3.2.1]octan-3-yl)-7-(4-chloro-6-fluoro-1H-indol-3-yl)-8-fluoro-2-((tetrahydro-1H-pyrrolizin-7a(5H)-yl)methoxy)quinazoline] | 0.0001 to 10 µM | – |
| CN1CCC[C@H]1COc1nc(N2C[C@H]3CC[C@@H](C2)N3)c2cc(Cl)c(-c3cc(O)cc4ccccc34)c(OCC(F)(F)F)c2n1 [P-0033, 4-(4-((1R,5S)-3,8-diazabicyclo[3.2.1]octan-3-yl)-6-chloro-2-(((S)-1-methylpyrrolidin-2-yl)methoxy)-8-(2,2,2-trifluoroethoxy)quinazolin-7-yl)naphthalen-2-ol] | 0.0001 to 10 µM | – |

Continued, values first:

| IC50 (KRAS G12D) | IC50 (Table 4, comparison with compounds of WO 2017/172979) | SMILES |
| --- | --- | --- |
| 0.0001 to 10 µM | – | CC(=O)c1c(F)ccc2[nH]cc(-c3ccc4c(N5C[C@H]6CC[C@@H](C5)N6)nc(OCC56CCCN5CCC6)nc4c3F)c12 [P-0514] |
| 0.0001 to 10 µM | – | CCc1cccc2[nH]cc(-c3ncc4c(N5C[C@H]6CC[C@@H](C5)N6)nc(OCC56CCCN5CCC6)nc4c3F)c12 [P-0549, 4-((1R,5S)-3,8-diazabicyclo[3.2.1]octan-3-yl)-7-(4-ethyl-1H-indol-3-yl)-8-fluoro-2-((tetrahydro-1H-pyrrolizin-7a(5H)-yl)methoxy)pyrido[4,3-d]pyrimidine] |
| 0.0001 to 10 µM | – | Cc1ccc2[nH]nc(C)c2c1-c1ccc2c(N3C[C@H]4CC[C@@H](C3)N4)nc(OCC34CCCN3CCC4)nc2c1F [P-0548, 4-((1R,5S)-3,8-diazabicyclo[3.2.1]octan-3-yl)-7-(3,5-dimethyl-1H-indazol-4-yl)-8-fluoro-2-((tetrahydro-1H-pyrrolizin-7a(5H)-yl)methoxy)quinazoline] |
| 0.0001 to 10 µM | – | OCC(COc1nc(N2C[C@H]3CC[C@@H](C2)N3)c2ccc(-c3cc(O)cc4ccccc34)c(F)c2n1)c1ccccc1 (stereo partly drawn) [P-0584, 4-(4-((1R,5S)-3,8-diazabicyclo[3.2.1]octan-3-yl)-8-fluoro-2-(3-hydroxy-2-phenylpropoxy)quinazolin-7-yl)naphthalen-2-ol] |
| 0.0001 to 10 µM | – | CN1CCC[C@H]1COc1nc(N2C[C@H]3CC[C@@H]2CN3)c2ccc(-c3cc(O)cc4ccccc34)cc2n1 [P-0012, 4-(4-((1R,4R)-2,5-diazabicyclo[2.2.2]octan-2-yl)-2-(((S)-1-methylpyrrolidin-2-yl)methoxy)quinazolin-7-yl)naphthalen-2-ol] |
| 0.0001 to 10 µM | – | OCC1(C(F)(F)F)CCN(c2nc(N3C[C@H]4CC[C@@H](C3)N4)c3ccc(-c4cc(O)cc5ccccc45)c(F)c3n2)C1 (stereo partly drawn) [P-0576, 4-(4-((1R,5S)-3,8-diazabicyclo[3.2.1]octan-3-yl)-8-fluoro-2-(3-(hydroxymethyl)-3-(trifluoromethyl)pyrrolidin-1-yl)quinazolin-7-yl)naphthalen-2-ol] |
| 0.0001 to 10 µM | – | O=C1NCCN1CCOc1nc(N2C[C@H]3CC[C@@H](C2)N3)c2ccc(-c3cc(O)cc4ccccc34)c(F)c2n1 [P-0520, 1-(2-((4-((1R,5S)-3,8-diazabicyclo[3.2.1]octan-3-yl)-8-fluoro-7-(3-hydroxynaphthalen-1-yl)quinazolin-2-yl)oxy)ethyl)imidazolidin-2-one] |
| 0.0001 to 10 µM | – | CCC1(N)CN(c2nc(N3C[C@H]4CC[C@@H](C3)N4)c3ccc(-c4cc(O)cc5ccccc45)c(F)c3n2)C1 [P-0578, 4-(2-(3-amino-3-ethylazetidin-1-yl)-4-((1R,5S)-3,8-diazabicyclo[3.2.1]octan-3-yl)-8-fluoroquinazolin-7-yl)naphthalen-2-ol] |
| 0.0001 to 10 µM | – | Oc1cc(-c2ccc3c(N4C[C@H]5CC[C@@H](C4)N5)nc(N4CCC5(CCOC5)C4)nc3c2F)c2ccccc2c1 (stereo partly drawn) [P-0528, 4-(4-((1R,5S)-3,8-diazabicyclo[3.2.1]octan-3-yl)-8-fluoro-2-(2-oxa-7-azaspiro[4.4]nonan-7-yl)quinazolin-7-yl)naphthalen-2-ol] |
| 0.0001 to 10 µM | – | CN1CC[C@@H](COc2nc(N3C[C@H]4CC[C@@H](C3)N4)c3ccc(-c4cc(O)cc5ccccc45)cc3n2)C1 [P-0069, 4-(4-((1R,5S)-3,8-diazabicyclo[3.2.1]octan-3-yl)-2-(((R)-1-methylpyrrolidin-3-yl)methoxy)quinazolin-7-yl)naphthalen-2-ol] |
| 0.0001 to 10 µM | – | CCNC1CCN(c2nc(N3C[C@H]4CC[C@@H](C3)N4)c3ccc(-c4cc(O)cc5ccccc45)c(F)c3n2)C1 (stereo partly drawn) [P-0531, 4-(4-((1R,5S)-3,8-diazabicyclo[3.2.1]octan-3-yl)-2-(3-(ethylamino)pyrrolidin-1-yl)-8-fluoroquinazolin-7-yl)naphthalen-2-ol] |
| 0.0001 to 10 µM | – | CC(=O)Nc1ccc(Cl)c(-c2c(F)cc3c(N4C[C@H]5CC[C@@H](C4)N5)nc(OCC45CCCN4CCC5)nc3c2F)c1 [P-0594, N-(3-(4-((1R,5S)-3,8-diazabicyclo[3.2.1]octan-3-yl)-6,8-difluoro-2-((tetrahydro-1H-pyrrolizin-7a(5H)-yl)methoxy)quinazolin-7-yl)-4-chlorophenyl)acetamide] |
| 0.0001 to 10 µM | – | CN1CCOC[C@H]1COc1nc(N2C[C@H]3CC[C@@H](C2)N3)c2ccc(-c3cc(O)cc4ccccc34)cc2n1 [P-0084, 4-(4-((1R,5S)-3,8-diazabicyclo[3.2.1]octan-3-yl)-2-(((S)-4-methylmorpholin-3-yl)methoxy)quinazolin-7-yl)naphthalen-2-ol] |
| 0.0001 to 10 µM | – | CC(=O)NCCN1[C@@H]2CC[C@H]1CN(c1nc(OCC34CCCN3CCC4)nc3c(F)c(-c4cc(O)cc5ccccc45)ccc13)C2 [P-0544, N-(2-((1R,5S)-3-(8-fluoro-7-(3-hydroxynaphthalen-1-yl)-2-((tetrahydro-1H-pyrrolizin-7a(5H)-yl)methoxy)quinazolin-4-yl)-3,8-diazabicyclo[3.2.1]octan-8-yl)ethyl)acetamide] |
| 0.0001 to 10 µM | – | CN1CCC[C@H]1COc1nc(N2C[C@H]3C[C@@H]2CN3)c2ccc(-c3cc(O)cc4ccccc34)cc2n1 [P-0051, 4-(4-((1R,4R)-2,5-diazabicyclo[2.2.1]heptan-2-yl)-2-(((S)-1-methylpyrrolidin-2-yl)methoxy)quinazolin-7-yl)naphthalen-2-ol] |
| 0.0001 to 10 µM | – | Oc1cc(-c2ccc3c(N4C[C@H]5CC[C@@H](C4)N5)nc(N4CC5(CCC5O)C4)nc3c2F)c2ccccc2c1 (stereo partly drawn) [P-0555, 2-(4-((1R,5S)-3,8-diazabicyclo[3.2.1]octan-3-yl)-8-fluoro-7-(3-hydroxynaphthalen-1-yl)quinazolin-2-yl)-2-azaspiro[3.3]heptan-5-ol] |
